Results: patent US20040209799A1, “JAK/STAT pathway inhibitors and the uses thereof” (priority 2000, published 2004)
pEC50: −log10 of the molar value. One block for each compound: values may come before it.

Key:
[1] = target: T1, JAK3 (Homo sapiens, UniProt P52333); conditions: cited from earlier work
T1 sequence (P52333 1-1124): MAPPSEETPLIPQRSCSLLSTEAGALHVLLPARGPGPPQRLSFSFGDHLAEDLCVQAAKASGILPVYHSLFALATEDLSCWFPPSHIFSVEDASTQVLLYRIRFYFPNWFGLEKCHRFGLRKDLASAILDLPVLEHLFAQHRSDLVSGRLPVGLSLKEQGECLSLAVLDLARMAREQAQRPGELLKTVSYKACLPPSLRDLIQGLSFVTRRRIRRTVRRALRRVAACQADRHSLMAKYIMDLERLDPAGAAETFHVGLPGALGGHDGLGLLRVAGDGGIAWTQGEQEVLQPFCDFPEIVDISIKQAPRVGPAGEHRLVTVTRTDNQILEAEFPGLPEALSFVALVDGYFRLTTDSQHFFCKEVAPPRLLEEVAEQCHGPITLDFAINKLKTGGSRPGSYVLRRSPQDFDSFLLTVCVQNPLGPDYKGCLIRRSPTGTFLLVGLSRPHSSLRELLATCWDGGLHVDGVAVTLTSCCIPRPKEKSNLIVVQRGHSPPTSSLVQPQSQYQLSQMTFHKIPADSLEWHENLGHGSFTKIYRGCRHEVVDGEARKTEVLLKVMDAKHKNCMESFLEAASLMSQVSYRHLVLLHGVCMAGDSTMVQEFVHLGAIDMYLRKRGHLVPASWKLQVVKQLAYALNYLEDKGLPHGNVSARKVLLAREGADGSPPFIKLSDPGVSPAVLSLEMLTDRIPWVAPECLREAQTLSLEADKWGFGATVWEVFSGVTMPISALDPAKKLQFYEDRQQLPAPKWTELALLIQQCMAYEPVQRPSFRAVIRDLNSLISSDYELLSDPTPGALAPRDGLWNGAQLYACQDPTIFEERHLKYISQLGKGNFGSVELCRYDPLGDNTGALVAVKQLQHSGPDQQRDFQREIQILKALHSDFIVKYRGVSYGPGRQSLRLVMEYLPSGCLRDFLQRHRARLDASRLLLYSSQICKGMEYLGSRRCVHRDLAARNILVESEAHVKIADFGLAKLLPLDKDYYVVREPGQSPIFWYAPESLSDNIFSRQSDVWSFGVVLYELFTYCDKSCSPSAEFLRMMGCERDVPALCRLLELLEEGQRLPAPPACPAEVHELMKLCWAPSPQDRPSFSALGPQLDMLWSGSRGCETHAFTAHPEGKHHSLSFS

[2] = tested on: chondrocytes; conditions: in vitro; cited from earlier work
[3] = tested on: chondrocytes in culture and explants of articular cartilage; conditions: cited from earlier work
[4] = target: BTK (Bruton's agarnrnaglobulinaemia tyrosine kinase) (Homo sapiens, UniProt Q06187); test: poly (Glu, Tyr) 4:1 ELISA, BTK; type: biochemical; conditions: ec-50 values ranging from hundreds of micromolar to no inhibition (data not shown)
Protocol: (§1) To further examine the inhibition characteristics of DBH (and its variants) to a variety of cellular components, a poly (Glu, Tyr) 4:1 ELISA was performed. Hymenialdisine (H), DBH (as marine sponge extracts: see Chipman and Faulkner, 1997), and three variant forms of synthetic DBH: the free base form of DBH (DBH-2FB), a trifluoroacetic acid salt form of DBH (DBH-2S), and a methanesulfonic acid salt form of DBH (DBH 1) were solubilized in DMSO, and tested for the ability to inhibit; ZAP-70 (ζ-associated polypeptide of 70 kDa) protein tyrosine kinase, BTK (Bruton's agarnrnaglobulinaemia tyrosine kinase), JAK3 (Janus kinase 3) protein tyrosine kinase, LCK (Lymphoid T-cell protein tyrosine kinase), and IGFR (Insulin-like growth factor receptor) protein tyrosine kinase.
(§2) Maxisorb microtiter plates (Nalge Nunc International, Rochester, N.Y.) were coated with 1 mg/ml Poly(Glu,Tyr) 4:1 (Sigma, St. Louis, Mo.) solubilized in phosphate buffered saline (PBS), 0.02% sodium azide. On the day of the assay, microtiter plates were washed 4× with TBS-Tween (25 mM Tris pH 8.0, 150 mM NaCl, 0.05% Tween 20) using a Skatron plate washer (Skatron Instruments, Sterling, Va.). 200 μl of sterile blocking buffer (3% BSA in PBS, 0.02% sodium azide) was added to each well, and the microtiter plates were incubated at 37° C. for 1 hour. The blocking buffer was removed, the plates washed, and various concentrations of inhibitor were added in a 20 μl volume to the wells. 60 μl of the appropriate substrate mix was then added. Substrate mixes were prepared as described in Table 2:
(§3) Following addition of the substrate mix, 20 μl of the test protein tyrosine kinase (in 1× assay buffer) was added. Kinase reactions were incubated 30 min at 37° C., followed by washes in the Skatron plate washer. 100 μl of biotinylated PT-66 anti-phosphotyrosine monoclonal antibody (Sigma, St. Louis, Mo.) (diluted 1:4000 in 0.5% BSA, sterile-filtered TBS) was added to each well, and incubated for an additional 30 minutes at 37° C. […] The samples were then read at 450 nm in a plate reader.

[5] = target: LCK (Lymphoid T-cell protein tyrosine kinase) (Homo sapiens, UniProt P06239); test: poly (Glu, Tyr) 4:1 ELISA, LCK; type: biochemical; conditions: ec-50 values ranging from hundreds of micromolar to no inhibition (data not shown)
Protocol: as §1, §2, §3

[6] = target: IGFR (Insulin-like growth factor receptor) protein tyrosine kinase (Homo sapiens, UniProt P08069); test: poly (Glu, Tyr) 4:1 ELISA, IGFR; type: biochemical; conditions: ec-50 values ranging from hundreds of micromolar to no inhibition (data not shown)
Protocol: as §1, §2, §3

[7] = target: T2, JAK3 (Janus kinase 3) protein tyrosine kinase (Homo sapiens, UniProt P52333); test: poly (Glu, Tyr) 4:1 ELISA, JAK3; type: biochemical; conditions: inhibitors solubilized in DMSO, read-out: ec-50 (effective concentration for 50% inhibition) of JAK3
T2 sequence (P52333 1-1124): T1 sequence (P52333 1-1124)
Protocol: as §1, §2, §3

[8] = target: T3, ZAP-70 (ζ-associated polypeptide of 70 kDa) protein tyrosine kinase (Homo sapiens, UniProt P43403); test: poly (Glu, Tyr) 4:1 ELISA, ZAP-70; type: biochemical; conditions: ec-50 values ranging from hundreds of micromolar to no inhibition (data not shown)
T3 sequence (P43403 1-619): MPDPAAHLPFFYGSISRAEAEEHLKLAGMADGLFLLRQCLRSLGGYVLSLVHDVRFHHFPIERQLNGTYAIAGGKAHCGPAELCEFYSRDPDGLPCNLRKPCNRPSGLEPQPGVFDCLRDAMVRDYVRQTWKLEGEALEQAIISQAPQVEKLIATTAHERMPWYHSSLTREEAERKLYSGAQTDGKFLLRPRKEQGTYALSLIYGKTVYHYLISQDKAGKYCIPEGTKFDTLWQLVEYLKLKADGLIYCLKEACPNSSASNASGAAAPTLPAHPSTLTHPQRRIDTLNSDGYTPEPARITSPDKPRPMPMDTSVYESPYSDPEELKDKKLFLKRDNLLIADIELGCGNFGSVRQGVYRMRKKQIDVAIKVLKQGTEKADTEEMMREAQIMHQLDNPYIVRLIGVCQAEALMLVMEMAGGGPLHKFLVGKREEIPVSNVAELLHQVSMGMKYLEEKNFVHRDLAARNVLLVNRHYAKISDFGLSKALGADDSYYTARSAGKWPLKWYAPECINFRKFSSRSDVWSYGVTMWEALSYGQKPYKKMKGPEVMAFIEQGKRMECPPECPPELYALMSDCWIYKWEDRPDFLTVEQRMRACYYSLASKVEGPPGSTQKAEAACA
Protocol: as §1, §2, §3

[9] = tested on: JAK3 mRNA; test: northern blot analysis of JAK3 expression in human articular chondrocytes; type: cell-based; conditions: 2 ng/ml for 24 hours, normal adult human articular chondrocytes in monolayer
Protocol: Frozen chondrocyte cell strain HC30-0198 (normal human articular chondrocytes prepared as described in Example 1) was thawed, cultured in monolayer (second passage), and cultured to 5 days post confluence. Test cultures were rinsed in phosphate buffered saline (PBS), followed by addition of either; 1) recombinant human interleukin-1β (rhIL-1β) (R&D Systems, Minneapolis, Minn.) at 2 ng/ml for 24 hours in serum-free DMEM containing 1% antibiotic solution, or 2) serum-free DMEM containing 1% antibiotic solution only (control).
RNA on the Northern blot was fixed to the membrane by using a Stratalinker® 1800 UV Crosslinker (Stratagene, La Jolla, Calif.).
A 109-base pair human cDNA for JAK3 was generated by RT-PCR (see Example 2 above).
Prehybridization and hybridization of the Northern blot was performed at 42° C. using a 1:1 dilution of 2× Prehybridization/Hybridization Solution (GIBCO/BRL, Gaithersburg, Md.) and formamide. After 15 hours of hybridization using the JAK3 DNA probe, the blot was successively washed two times in 2×SSC/0.1% SDS (15 minutes/wash at room temperature), and two times in 0.5×SSC/0.1% SDS (30 minutes/wash at 65° C.). The blot was allowed to air dry, and the radioactive signal was visualized using a Fujifilm BAS-1500 phosphorimager (Fuji Medical Systems, USA, Stamford, C1).

BTK (Bruton's agarnrnaglobulinaemia tyrosine kinase), sequence (Q06187 whole entry, species assumed): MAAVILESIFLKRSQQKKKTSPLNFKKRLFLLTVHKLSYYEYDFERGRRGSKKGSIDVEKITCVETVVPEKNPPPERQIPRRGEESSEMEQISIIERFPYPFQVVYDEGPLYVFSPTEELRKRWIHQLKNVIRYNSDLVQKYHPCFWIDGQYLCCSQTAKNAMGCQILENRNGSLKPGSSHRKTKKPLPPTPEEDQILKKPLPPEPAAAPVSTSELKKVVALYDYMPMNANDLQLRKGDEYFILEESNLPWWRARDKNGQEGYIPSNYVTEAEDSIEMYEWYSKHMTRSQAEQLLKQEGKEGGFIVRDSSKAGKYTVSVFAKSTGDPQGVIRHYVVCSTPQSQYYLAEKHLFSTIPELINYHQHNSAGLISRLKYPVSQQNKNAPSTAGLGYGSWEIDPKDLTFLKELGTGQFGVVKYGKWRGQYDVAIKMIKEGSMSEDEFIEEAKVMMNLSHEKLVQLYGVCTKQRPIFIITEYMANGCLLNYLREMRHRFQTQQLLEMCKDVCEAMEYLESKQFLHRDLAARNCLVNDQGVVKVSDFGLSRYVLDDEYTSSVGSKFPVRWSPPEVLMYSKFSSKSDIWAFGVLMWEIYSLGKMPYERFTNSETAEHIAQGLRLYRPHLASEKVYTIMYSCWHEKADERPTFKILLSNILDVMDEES
LCK (Lymphoid T-cell protein tyrosine kinase), sequence (P06239 whole entry, species assumed): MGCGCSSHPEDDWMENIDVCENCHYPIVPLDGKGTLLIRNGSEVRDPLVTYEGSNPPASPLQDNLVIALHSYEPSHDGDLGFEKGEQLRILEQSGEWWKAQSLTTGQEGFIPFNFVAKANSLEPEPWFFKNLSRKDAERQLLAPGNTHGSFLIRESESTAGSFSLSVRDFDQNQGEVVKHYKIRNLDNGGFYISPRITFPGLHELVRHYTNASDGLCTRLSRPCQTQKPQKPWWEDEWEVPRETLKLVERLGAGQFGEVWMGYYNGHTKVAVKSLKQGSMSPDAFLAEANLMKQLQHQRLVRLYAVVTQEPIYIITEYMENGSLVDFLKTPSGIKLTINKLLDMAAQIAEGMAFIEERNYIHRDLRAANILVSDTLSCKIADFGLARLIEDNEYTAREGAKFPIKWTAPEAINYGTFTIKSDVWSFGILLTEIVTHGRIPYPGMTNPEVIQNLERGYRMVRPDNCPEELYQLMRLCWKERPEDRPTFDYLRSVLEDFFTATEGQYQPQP
IGFR (Insulin-like growth factor receptor) protein tyrosine kinase, sequence (P08069 31-1367): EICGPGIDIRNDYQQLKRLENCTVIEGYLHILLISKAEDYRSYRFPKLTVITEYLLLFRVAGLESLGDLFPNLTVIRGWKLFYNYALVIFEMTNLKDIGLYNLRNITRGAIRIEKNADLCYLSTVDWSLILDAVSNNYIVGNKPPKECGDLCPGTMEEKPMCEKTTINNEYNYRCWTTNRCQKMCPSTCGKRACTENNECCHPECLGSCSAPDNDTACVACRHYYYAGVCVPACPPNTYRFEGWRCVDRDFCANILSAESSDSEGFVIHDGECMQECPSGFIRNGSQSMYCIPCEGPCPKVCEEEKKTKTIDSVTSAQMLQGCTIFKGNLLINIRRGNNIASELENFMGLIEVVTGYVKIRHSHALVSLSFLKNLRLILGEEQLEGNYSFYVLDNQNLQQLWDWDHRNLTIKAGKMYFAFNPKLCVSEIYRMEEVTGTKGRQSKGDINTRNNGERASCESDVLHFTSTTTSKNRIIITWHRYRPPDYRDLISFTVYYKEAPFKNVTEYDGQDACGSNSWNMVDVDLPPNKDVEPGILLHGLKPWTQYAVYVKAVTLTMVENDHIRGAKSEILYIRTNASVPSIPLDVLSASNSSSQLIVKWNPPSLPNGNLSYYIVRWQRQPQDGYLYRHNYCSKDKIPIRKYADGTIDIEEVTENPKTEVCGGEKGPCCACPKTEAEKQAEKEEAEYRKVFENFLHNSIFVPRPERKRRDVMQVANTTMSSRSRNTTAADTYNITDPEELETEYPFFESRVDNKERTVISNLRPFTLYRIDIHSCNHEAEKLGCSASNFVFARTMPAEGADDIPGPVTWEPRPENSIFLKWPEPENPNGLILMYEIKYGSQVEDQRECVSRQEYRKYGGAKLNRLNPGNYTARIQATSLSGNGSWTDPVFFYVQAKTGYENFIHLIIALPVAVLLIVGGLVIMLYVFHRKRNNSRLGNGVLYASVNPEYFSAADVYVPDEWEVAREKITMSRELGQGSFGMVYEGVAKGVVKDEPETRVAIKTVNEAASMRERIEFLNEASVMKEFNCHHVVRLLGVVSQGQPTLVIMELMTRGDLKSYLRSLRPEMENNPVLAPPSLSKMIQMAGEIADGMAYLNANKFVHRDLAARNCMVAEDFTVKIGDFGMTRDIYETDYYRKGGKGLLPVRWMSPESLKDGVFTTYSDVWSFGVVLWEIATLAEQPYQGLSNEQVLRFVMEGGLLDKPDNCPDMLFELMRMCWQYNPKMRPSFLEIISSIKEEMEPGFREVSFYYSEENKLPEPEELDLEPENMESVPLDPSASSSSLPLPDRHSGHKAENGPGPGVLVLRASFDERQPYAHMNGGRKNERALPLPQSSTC

Compound: COc1cc(C(N)=O)c([N+](=O)[O-])cc1OC [4,5-dimethoxy-2-nitrobenzamide]
inhibition of JAK3 [1]: specifically inhibit

Compound: COc1cc(C(=O)O)c([N+](=O)[O-])cc1OC [4,5-dimethoxy-2-nitrobenzoic acid]
inhibition of JAK3 [1]: specifically inhibit

Compound: O=C1NC(=O)c2cc(Nc3ccccc3)c(Nc3ccccc3)cc21 [DAPH, 4,5-dianilinophthalimide]
effect on cartilage degradation by chondrocytes [2]: reduce or prevent

Inhibition of BTK [4]: weak
Inhibition of LCK [5]: weak
Inhibition of IGFR [6]: weak
pEC50 [7]: 4.97 to 5.59
Inhibition of ZAP-70 [8]: weak
Compound: NC1=NC(=O)C(=C2CCNC(=O)c3[nH]c(Br)cc32)N1 [H, 4-(2-amino-4-oxo-2-imidazolin-5-ylidene)-2-bromo-4,5,6,7-tetrahydropyrrolo (2,3-c) azepine-8-one]
inhibition of IL-1 induced degradation of glycosaminoglycan and extracellular matrix [3]: inhibit

Compound: O=c1c(-c2ccc(O)cc2)coc2cc(O)cc(O)c12 [genistein]
effect on cartilage degradation by chondrocytes [2]: reduce or prevent

Compound: CO[C@H]1[C@@H](OC)C[C@H](C)[C@@H](OC)C2=CC(=O)C=C(NC(=O)/C(C)=C/C=C\[C@H](OC)[C@@H](OC(N)=O)/C(C)=C/[C@@H]1C)C2=O [herbimycin A]
effect on cartilage degradation by chondrocytes [2]: reduce or prevent

Compound: N#CC(C#N)=Cc1cc(O)c(O)c(O)c1 [tyrphostin AG 82]
effect on cartilage degradation by chondrocytes [2]: reduce or prevent

Compound: N#C/C(=C\c1ccc(O)c(O)c1)C(=O)NCCCCc1ccccc1 [tyrphostin AG 556]
effect on cartilage degradation by chondrocytes [2]: reduce or prevent

Compound: rhIL-1β: recombinant human interleukin-1β (R&D Systems)
effect on the level of JAK3 mRNA [9]: neither increases nor decreases
